Assay results from patent US20080269240A1, “Novel Adenine Compound” (priority 2005, published 2008).

Molecular target: T1, human TLR7 (Homo sapiens, UniProt Q9NYK1)
T1 construct: expressed in transfected cells; host or cells: HEK293 (hTLR7/seap-293)
T1 sequence (Q9NYK1 27-1049): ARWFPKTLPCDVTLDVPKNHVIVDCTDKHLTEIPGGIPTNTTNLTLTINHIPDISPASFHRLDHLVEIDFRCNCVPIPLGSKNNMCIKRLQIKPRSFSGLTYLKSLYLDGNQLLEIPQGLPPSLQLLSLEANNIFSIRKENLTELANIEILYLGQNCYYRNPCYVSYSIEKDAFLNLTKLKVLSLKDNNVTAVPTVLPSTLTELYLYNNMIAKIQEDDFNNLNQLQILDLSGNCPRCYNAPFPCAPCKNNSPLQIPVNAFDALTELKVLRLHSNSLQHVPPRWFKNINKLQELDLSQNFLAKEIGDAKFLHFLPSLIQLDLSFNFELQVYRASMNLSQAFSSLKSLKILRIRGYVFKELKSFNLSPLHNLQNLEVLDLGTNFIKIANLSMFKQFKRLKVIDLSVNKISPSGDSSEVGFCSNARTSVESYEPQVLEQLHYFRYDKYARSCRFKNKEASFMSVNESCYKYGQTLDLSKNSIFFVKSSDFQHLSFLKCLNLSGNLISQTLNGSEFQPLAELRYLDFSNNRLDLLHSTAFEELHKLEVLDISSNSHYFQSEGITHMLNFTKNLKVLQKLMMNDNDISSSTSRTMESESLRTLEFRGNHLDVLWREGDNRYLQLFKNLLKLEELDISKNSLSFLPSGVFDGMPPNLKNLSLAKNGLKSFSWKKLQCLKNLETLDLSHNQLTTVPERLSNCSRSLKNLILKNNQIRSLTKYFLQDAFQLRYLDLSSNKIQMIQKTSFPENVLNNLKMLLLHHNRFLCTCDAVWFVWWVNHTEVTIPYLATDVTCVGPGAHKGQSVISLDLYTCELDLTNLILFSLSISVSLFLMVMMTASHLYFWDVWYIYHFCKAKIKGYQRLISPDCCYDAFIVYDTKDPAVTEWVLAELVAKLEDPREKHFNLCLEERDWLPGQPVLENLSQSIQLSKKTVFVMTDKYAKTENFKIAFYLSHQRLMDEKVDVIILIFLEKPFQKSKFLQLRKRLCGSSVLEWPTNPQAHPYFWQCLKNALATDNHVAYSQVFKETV
Assay: Human TLR7 reporter assay (NF-kB-SEAP) in HEK293 cells
Type: cell-based
Conditions: HEK293 cells stably introduced with human TLR7 plasmid and NF-kB-SEAP reporter plasmid; cultured 20 hours with compound (1 nM-10 μM); absorbance 405 nm; read-out: Human TLR7 binding activity (EC50)
Method: Human TLR7 Reporter Assay
HEK293 cells in which human TLR7 or rat TLR7 plasmid and reporter plasmid (NF-kB-SEAP) are stably introduced are dispersed in DMEM broth (10% FBS, 1% NEAA, 10 ug/mL blastocidin S HCl, 100 ug/mL Zeocin), and were seeded to 96 well plate per 90 μl/well (hTLR7/seap-293: 20000 cells/well, rTLR7/seap-293:25000 cells/well).
Test compound (DMSO stock solution (2 μl) was diluted with the broth (200 μl) by 100 times) was added to the seeded cells to a 96 well plate (10 μl/well) (final concentration; 1 nM-10 μM, common ratio). After stirring by tapping side of the plate, the cells were cultured in a CO2 incubator for 20 hours. A substrate (50 μl/well) for reporter assay (substrate for SEAP, pNPP) was added to cells stimulated by test sample. Ten minutes after adding the substrate, the reaction quenching solution (4N NaOH) was added by 50 μl/well to cease enzymatic reaction. Sealing a top seal A on the plate, the absorbance was measured by a micro plate reader (405 nm).

Structure (SMILES)	EC50
CCCCOc1nc(N)c2[nH]c(=O)n(CCCCCCCN3CCN(CCOc4cccc(CC(=O)OC)c4)CC3)c2n1 [Example 23, 2-Butoxy-7,8-dihydro-9-(7-{4-[2-(3-methoxycarbonylmethylphenyloxy)ethyl]piperazin-1-yl}heptyl)-8-oxoadenine]	74.5 nM
CCCCOc1nc(N)c2[nH]c(=O)n(CCCCCN3CCN(CCN(C)Cc4cccc(CC(=O)OC)c4)CC3)c2n1 [Example 20, 2-Butoxy-7,8-dihydro-9-[5-(4-{2-[N-methyl-N-(3-methoxycarbonylmethyl)benzyl]aminomethyl}piperazin-1-yl)pentyl]-8-oxoadenine]	139 nM
CCCCOc1nc(N)c2[nH]c(=O)n(CC3CCN(C(=O)CN(C)CCOc4cc(CC(=O)OC)ccc4OC)CC3)c2n1 [Example 19, 2-Butoxy-7,8-dihydro-9-{1-[(N-{2-[2-methoxy-5-(methoxylcarbonylmethyl)phenoxy]ethyl}-N-methyl)aminomethylacarbonyl]piperidin-4-ylmethyl}-8-oxoadenine]	644 nM
COCCOc1nc(N)c2[nH]c(=O)n(CC3CCN(CC(=O)N(C)CCOc4cccc(CC(=O)OC)c4)CC3)c2n1 [Example 17, 7,8-Dihydro-2-(2-methoxyethoxy)-9-{1-[(N-(2-[3-(methoxylcarbonylmethyl)phenoxy]ethyl}-N-methyl)aminocarbonylmethyl]piperidin-4-ylmethyl}-8-oxoadenine]	5620 nM
CCCCOc1nc(N)c2[nH]c(=O)n(CCC3CCN(CCCN(C)CCOc4cccc(CC(=O)OC)c4)CC3)c2n1 [Example 12, 2-Butoxy-7,8-dihydro-9-{1-[3-([N-methyl-N {2 [3-(methoxycarbonylmethyl)phenoxy]ethyl}]amino)propyl]piperidin-4-ylethyl}-8-oxoadenine]	579 nM
CCCCOc1nc(N)c2[nH]c(=O)n(CCC3CCN(CCOc4cccc(CC(=O)OC)c4)CC3)c2n1 [Example 11, 2-Butoxy-7,8-dihydro-9-(1-{2-[3-(methoxycarbonylmethyl)phenoxy]ethyl}piperidin-4-ylethyl)-8-oxoadenine]	187 nM
CCCCOc1nc(N)c2[nH]c(=O)n(CC3CCN(CCCN(C)Cc4cccc(CC(=O)OC)c4)CC3)c2n1 [Example 1, 2-Butoxy-7,8-dihydro-9-{[2-(3-{N-[(3-methoxycarbonylmethylphenyl-1-yl)methyl]-N-methylamino}propyl)piperidin-4-yl]methyl}-8-oxoadenine]	1620 nM
CCCCOc1nc(N)c2[nH]c(=O)n(CCC3CCN(C(=O)CN(C)CCOc4cccc(CC(=O)OC)c4)CC3)c2n1 [Example 18, 2-Butoxy-7,8-dihydro-9-(2-{1-[(N-{2-[3-(methoxylcarbonylmethyl)phenoxy]ethyl)-N-methyl)aminocarbonylmethyl]piperidin-4-yl}ethyl)-8-oxoadenine]	281 nM
CCCCOc1nc(N)c2[nH]c(=O)n(CCCCCCCN3CCN(CCN(C)Cc4cccc(CC(=O)OC)c4)CC3)c2n1 [Example 21, 2-Butoxy-7,8-dihydro-9-[7-(4-{2-[N-methyl-N-(3-methoxycarbonylmethyl)benzyl]aminomethyl}piperazin-1-yl)heptyl]-8-oxoadenine]	449 nM
CCCCOc1nc(N)c2[nH]c(=O)n(CCCCN3CCC(Oc4cccc(CC(=O)OC)c4)CC3)c2n1 [Example 29]	713 nM
CCCCOc1nc(N)c2[nH]c(=O)n(CC3CCN(CCCNCc4cccc(CC(=O)OC)c4)CC3)c2n1 [Example 2]	1860 nM
CCCCOc1nc(N)c2[nH]c(=O)n(CCCCCN3CCN(CCOc4cccc(CC(=O)OC)c4)CC3)c2n1 [Example 22]	198 nM
